Patent US9499529B2 (California State University Fresno, priority 2013, dated 2016)
pIC50: −log10 of the molar value.

Experiments:
[1] = test system: PC-3 prostate cancer cell line; conditions: cited from earlier work
[2] = test system: HeLa cervical cancer cells; experiment: HeLa cell viability after treatment with analog (cell count, cell viability analyzer); type: cell-based, human; conditions: for viability at 1 µM / viability at 10 µM: Homo sapiens, HeLa, 72 h, read-out: HeLa Cell viability after treatment with analog (% viability)
Experimental: Cell numbers were counted with a cell viability analyzer (Beckman-Coulter). The ratio of drug treated viable cell numbers to control vehicle (DMSO) treated viable cell numbers was defined as percentage viability. […] Compound nos.
The HeLa cells used in the experiments summarized by Table 5 were cultured in RPMI-1640 medium supplemented with 10% FBS, 4 mM glutamine, 1 mM sodium pyruvate, 100 IU/mL penicillin, 100 ug/mL streptomycin and 0.25 ug/mL amphotericin. The HeLa cells were plated in 24-well plates at a density of 20,000 cells in each well in 10% FBS RPMI-1640. […] Cell numbers were counted with a cell viability analyzer (Beckman-Coulter). […]

[3] = test system: DU-145 prostate cancer cells; experiment: In vitro cytotoxicity against DU-145 prostate cancer cells; type: cell-based, human; conditions: DU-145 cells; for pIC50: five days
Experimental: (§1) The half maximal inhibitory concentration (IC50) is a measure of the effectiveness of a substance in inhibiting a specific biological or biochemical function. It is commonly used as a measure of antagonist drug potency.
Cell numbers were counted with a cell viability analyzer (Beckman-Coulter).
(§2) A preliminary dose response curve was prepared from the collected data by means well known to those of ordinary skill in the art.
(§3) The six different concentrations fell within a selected linear concentration range determined by reference to the preliminary dose response curve and efforts to estimate the concentration at which 50% of the cell growth would be inhibited. The selected six different concentrations were used to further fill out the dose response curve to pinpoint a more exact IC50 value.

[4] = test system: PC-3 prostate cancer cells; experiment: In vitro cytotoxicity against PC-3 prostate cancer cells; type: cell-based, human; conditions: PC-3 cells; for pIC50: five days
Experimental: as §1
Cell cultures were maintained in 5% carbon dioxide at a temperature of 37° C. […] Cell numbers were counted with a cell viability analyzer (Beckman-Coulter). […] A preliminary dose response curve was prepared from the collected data by means well known to those of ordinary skill in the art.
as §3

[5] = test system: HeLa cervical cancer cells; experiment: In vitro cytotoxicity against HeLa cervical cancer cells; type: cell-based, human; conditions: for pIC50: three days
Experimental: as §1
(§4) Cell numbers were counted with a cell viability analyzer (Beckman-Coulter). The ratio of drug treated viable cell numbers to vehicle treated viable cell numbers was defined as percentage viability.
as §2, §3

[6] = test system: MCF-10A normal mammary epithelial cells; experiment: Cytotoxicity towards non-cancerous MCF-10A cells (FIG. 9); type: cell-based; conditions: for cytotoxicity towards MCF-10A normal mammary epithelial cells (in words): 0.1 μM, and 0.01 μM
Experimental: The MCF-10A normal mammary epithelial cells were cultured in RPMI-1640 medium supplemented with 10% FBS, 4 mM glutamine, 1 mM sodium pyruvate, 100 IU/mL penicillin, 100 ug/mL streptomycin and 0.25 ug/mL amphotericin. The MCF-10A cells were plated in 24-well plates at a density of 20,000 each well in 10% FBS RPMI-1640 or DMED medium. […] Cell numbers were counted with a cell viability analyzer (Beckman-Coulter).

[7] = test system: MDA-MB-231 breast cancer cells; experiment: In vitro cytotoxicity toward MDA-MB-231 cells; type: cell-based; conditions: Homo sapiens, 120 h, five days, read-out: IC50 (analog)
Text: as §4

[8] = test system: A549 non-small cell lung cancer cells; experiment: In vitro cytotoxicity toward A549 cells; type: cell-based; conditions: Homo sapiens, 120 h, between three and five days, read-out: IC50 (analog)
Text: as §4

[9] = 1 μM, three days, relative to DMSO vehicle
[10] = 10 μM, three days, relative to DMSO vehicle

SMILES: COc1cc(/C=C/C(=O)/C=C/c2ccc(O)c(OC)c2)ccc1O [FLLL11]
- potency towards PC-3 prostate cancer cell line relative to curcumin [1]: more potent than curcumin

SMILES: Cc1cc(/C=C2\CCC/C(=C\c3cc(C)on3)C2=O)no1 [Compound 18, (2E,6E)-2,6-Bis((5-methylisoxazol-3-yl)methylene)cyclohexanone]
- viability at 1 µM [2]: 32%
- viability at 10 µM [2]: 15.9%
- pIC50 [3]: 7.15
- pIC50 [4]: 7.15
- IC50 (curcumin)/IC50 (analog) [5]: 19
- pIC50 [5]: 6.26

SMILES: CCC(C)n1ccnc1/C=C/C(=O)/C=C/c1nccn1C(C)CC (stereo not drawn) [Compound 21]
- HeLa Cell viability after treatment with analog (% viability) [2, 9]: 81.8%
- HeLa Cell viability after treatment with analog (% viability) [2, 10]: 17.7%
- survival of MCF-10A cells ([6]; 0.01 μM, five days, FIG. 9): 100%
- survival of MCF-10A cells ([6]; 0.1 μM, five days, FIG. 9): about 90%
- cytotoxicity towards MCF-10A normal mammary epithelial cells (in words) ([6]; 1 μM, FIG. 9): no apparent cytotoxicity
- survival of MCF-10A cells ([6]; 1 μM, five days, FIG. 9): about 80%
- pIC50 [3]: 7.46
- pIC50 [4]: 7.20
- IC50 (curcumin)/IC50 (analog) [5]: 16
- pIC50 [5]: 6.18

SMILES: CC(C)n1ccnc1/C=C/C(=O)/C=C/c1nccn1C(C)C [Compound 20]
- HeLa Cell viability after treatment with analog (% viability) [2, 9]: 35%
- HeLa Cell viability after treatment with analog (% viability) [2, 10]: 11.4%
- pIC50 [3]: 7.27
- pIC50 [4]: 7.05
- IC50 (curcumin)/IC50 (analog) [5]: 25
- pIC50 [5]: 6.38

SMILES: Cc1cc(/C=C/C(=O)/C=C/c2cc(C)on2)no1 [Compound 27]
- HeLa Cell viability after treatment with analog (% viability) [2, 9]: 48%
- HeLa Cell viability after treatment with analog (% viability) [2, 10]: 15.9%
- pIC50 [3]: 7.38
- IC50 (curcumin)/IC50 (analog) [4]: 7.9
- pIC50 [4]: 6.60
- pIC50 [5]: 6.53

SMILES: Cc1cc(/C=C/C(=O)/C=C/c2cc(C)no2)on1 [Compound 28, (1E,4E)-1,5-Bis(3-methylisoxazol-5-yl)penta-1,4-dien-3-one]
- viability at 1 µM [2]: 28%
- melting point: 167 to 169 °C
- survival of MCF-10A cells ([6]; 0.01 μM, five days, FIG. 9): about 90%
- survival of MCF-10A cells ([6]; 0.1 μM, five days, FIG. 9): about 90%
- survival of MCF-10A cells ([6]; 1 μM, five days, FIG. 9): about 85%
- pIC50 [3]: 7.80
- pIC50 [7]: 6.81
- pIC50 [4]: 7.39
- pIC50 [8]: 6.80
- pIC50 [5]: 6.65

SMILES: CC(C)Cn1ccnc1/C=C/C(=O)/C=C/c1nccn1CC(C)C [Compound 22]
- HeLa Cell viability after treatment with analog (% viability) [2, 9]: 34.1%
- HeLa Cell viability after treatment with analog (% viability) [2, 10]: 23.1%
- survival of MCF-10A cells ([6]; 0.01 μM, five days, FIG. 9): 100%
- survival of MCF-10A cells ([6]; 0.1 μM, five days, FIG. 9): about 85%
- cytotoxicity towards MCF-10A normal mammary epithelial cells (in words) ([6]; 1 μM, FIG. 9): no apparent cytotoxicity
- survival of MCF-10A cells ([6]; 1 μM, five days, FIG. 9): about 85%
- pIC50 [3]: 7.24
- pIC50 [4]: 7.34
- IC50 (curcumin)/IC50 (analog) [5]: 24
- pIC50 [5]: 6.37

SMILES: COc1cc(/C=C/C(=O)CC(=O)/C=C/c2ccc(O)c(OC)c2)ccc1O [curcumin, reference compound]
- viability at 1 µM [2]: 100%
- viability at 10 µM [2]: 42.5%
- survival of MCF-10A cells ([6]; human, 5 days, 0.01 µM): 100%
- survival of MCF-10A cells ([6]; human, 5 days, 0.1 µM): about 95%
- survival of MCF-10A cells ([6]; human, 5 days, 1 µM): about 95%
- pIC50 ([3]; Homo sapiens, DU-145, 120 h): 6.52
- pIC50 [7]: 6.06
- pIC50 ([4]; Homo sapiens, PC-3, 120 h): 5.70
- pIC50 [8]: 4.82
- pIC50 ([5]; Homo sapiens, HeLa, 72 h): 4.98

SMILES: COc1cc(/C=C/C(=O)/C=C/c2cc(OC)c(O)c(OC)c2)cc(OC)c1O [FLLL12]
- potency towards PC-3 prostate cancer cell line relative to curcumin [1]: more potent than curcumin

SMILES: CN1CC(=Cc2cscn2)C(=O)C(=Cc2cscn2)C1 [Compound 6]
- HeLa Cell viability after treatment with analog (% viability) [2, 9]: 72.0%
- HeLa Cell viability after treatment with analog (% viability) [2, 10]: 12.0%
- IC50 (curcumin)/IC50 (analog) [3]: 0.7
- pIC50 [3]: 6.37
- IC50 (curcumin)/IC50 (analog) [4]: 2.5
- pIC50 [4]: 6.10
- IC50 (curcumin)/IC50 (analog) [5]: 13
- pIC50 [5]: 6.09

SMILES: Cc1cc(/C=C2\CCC/C(=C\c3cc(C)on3)C2=O)no1 [Compound 8, (2E,6E)-2,6-Bis((5-methylisoxazol-3-yl)methylene)cyclohexanone]
- HeLa Cell viability after treatment with analog (% viability) ([2]; 10 µM): 12.8%
- pIC50 [3]: 7.47
- pIC50 [4]: 6.85
- pIC50 [5]: 6.69
